Results reported in patent publication US20210352950A1 (priority 2019, published 2021).

Legend:
FTH = FTH protein expression in cells (western blot); format: cell-based, human and murine; conditions: HCT116, CT26.WT, STS 24 hours + vitamin C 350 μM 3 hours
Experimental: (§1) Cells were washed twice in ice-cold PBS and lysates were prepared in RIPA lysis buffer (50 mM Tris HCl pH 7.4, 150 mM NaCl, 1% NP-40, 0.25% deoxycholic acid, 1 mM EDTA) supplemented with protease and phosphatase inhibitors (protease inhibitor cocktail set III EDTA-free, Calbiochem, Cat. #: S39134; PhosStop, Roche), Samples were sonicated (bioruptor plus, diogenode) and centrifuged at 16.1 g for 30 minutes at 4° C. Tumor tissues were collected and snap frozen in liquid nitrogen immediately after mice were sacrificed, and stored in -80° C. until use. […] Protein concentrations were determined by BCA assay (Thermo Fisher Scientific, Cat. #: 23225). Proteins were diluted in 1× Laemmli sample buffer, boiled at 95° C. for 5 minutes and 30 μg of total proteins were separated by using SDS-PAGE and analyzed by western blotting by standard procedures. […] Membranes were incubated overnight at 4° C. with gentle shaking with the following primary antibodies: […] ADI-SPA894), FTH (1:1000, Cell Signaling, Cat. #: 3998), AMPK (1:1000, Cell Signaling, Cat. #: 2532), phospho-[…] AMPK (1:1000, Cell Signaling, Cat. #: 2535), eIF2a (1:1000, Cell signaling, Cat. #: 5324), phospho […] eIF2a (1:1000, Cell signaling, Cat. #: 3597), AKT (1:1000, Cell Signaling, Cat. #: 9272), phospho-[…] […] Bands intensity was quantified with NIH Image J software (version 1.48v).

phospho-AKT (serine 473) = experiment: AKT phosphorylation (western blot); format: cell-based, human; conditions: HCT116, STS 24 hours + vitamin C 350 μM 3 hours
Experimental: as §1

HO-1 = HO-1 expression in HCT116 (qPCR, western blot); format: cell-based, human; conditions: HCT116, CTR, vitamin C 350 μM 3 hours as single intervention
Experimental: Cells were washed twice in ice-cold PBS and lysates were prepared in RIPA lysis buffer (50 mM Tris HCl pH 7.4, 150 mM NaCl, 1% NP-40, 0.25% deoxycholic acid, 1 mM EDTA) supplemented with protease and phosphatase inhibitors (protease inhibitor cocktail set III EDTA-free, Calbiochem, Cat. #: S39134; PhosStop, Roche), Samples were sonicated (bioruptor plus, diogenode) and centrifuged at 16.1 g for 30 minutes at 4° C. Tumor tissues were collected and snap frozen in liquid nitrogen immediately after mice were sacrificed, and stored in -80° C. until use. […] Protein concentrations were determined by BCA assay (Thermo Fisher Scientific, Cat. #: 23225). Proteins were diluted in 1× Laemmli sample buffer, boiled at 95° C. for 5 minutes and 30 μg of total proteins were separated by using SDS-PAGE and analyzed by western blotting by standard procedures. […] Membranes were incubated overnight at 4° C. with gentle shaking with the following primary antibodies: […] ADI-SPA894), FTH (1:1000, Cell Signaling, Cat. #: 3998), AMPK (1:1000, Cell Signaling, Cat. #: 2532), phospho-[…] […] Bands intensity was quantified with NIH Image J software (version 1.48v). […] Resulting cDNA (1/20 v/v) was analyzed by real-time polymerase reaction (qRT-PCR) using TaqMan MBG probes with FAM reporter dyes. […]

[1] = system: phospho-eIF2a (serine 51); experiment: eIF2a phosphorylation (western blot); format: cell-based, human; conditions: HCT116, STS 24 hours + vitamin C 350 μM 3 hours
Experimental: as §1

[2] = system: HCT116 subcutaneous tumors; experiment: HCT116 xenograft tumor volume; format: in vivo, mouse; conditions: NSG mice
[3] = system: Phosphorylated histone H2AX; experiment: Histone H2AX phosphorylation (DNA damage, western blot); format: cell-based, human and murine; conditions: HCT116 and CT26.WT, STS 24 hours + vitamin C 350 μM 3 hours
Experimental: as §1

In the case of `O=C1O[C@H]([C@@H](O)CO)C(O)=C1O` [vitamin C, ascorbic acid], the “FTH protein expression level” value (FTH) is reported as “reduces FTH protein expression level”, the “AKT phosphorylation level (downregulated upon STS)” value (phospho-AKT (serine 473)) is reported as “potentiated even further” and the “HO-1 mRNA and protein level” value (HO-1) is reported as “significantly up-regulated HO-1 both at transcriptional and protein level”. For the same compound, the eIF2a phosphorylation level [1] was “significantly induced the phosphorylation level”, the “tumor progression, single interventions” value ([2]; 3-days FMD every week or vitamin C 4 g/kg i.p. twice a day) was “delayed tumor progression” and the “anti-cancer effect combined with fasting cycles” value ([2]; 3 cycles of fasting (2 days, water only) + vitamin C 4 g/kg i.p. twice a day) was “significantly enhanced”. For the same compound, the “DNA damage measured by phosphorylation level of histone H2AX” value [3] was “strongly induced DNA damage”.
